Experimental data taken from patent USRE32016E, “Analysis of lactic acid or lactate using lactate oxidase” (Eastman Kodak Company, priority 1981, dated 1985).

Target: lactate oxidase from Streptococcus faecalis ATCC 12755 (Enterococcus casseliflavus, UniProt C9AC47)
Settings: read-out: Km for L(+)-lactate; 30° C., potassium phosphate buffer pH 7.0
Protocol: For spectrophotometric assay of the lactate oxidase standard reaction mixtures contained in a total volume of 1.0 ml: 100 μmoles potassium phosphate buffer, pH 7.0, 25 μmoles lactic acid, 30 μg horseradish peroxidase (5.6 purpurogallin units), and 0.25 μmoles orthodianisidine. Samples were equilibrated at 30° C. and then reactions initiated by addition of S. faecalis lactate oxidase. Absorbance at 430 nm was measured in a Beckman A-25 Spectrophotometer. Initial rates were calculated from the linear portion of the curve and converted to units of lactate oxidase activity were appropriate. One unit=1 μmole of dye produced per minute at 30° C. using an ε=1.1×10^4 for orthodianisidine.
Reaction mixtures contained in a total volume of 1.0 ml: 90 μmoles potassium phosphate buffer, (pH 7.0), 0.2 μmoles orthodianisidine, or 96 μg 4-aminoantipyrene hydrochloride and 32 μg 1,7-dihydroxynaphthalene, 25 μg horseradish peroxidase (5.6-purpurogallin units) and 0.64 mg lactate oxidase (0.4 units).
Samples were equilibrated at 30° C. and the initial absorbance measured at 430 nm. […] For each serum sample, a blank, which contained all components except the lactate oxidase, was treated in the same manner as the sample. The ΔA430 for each blank was subtracted from the ΔA430 of the appropriate sample and the lactate concentration was determined by comparison to a lactate standard curve. […]

Sequence of lactate oxidase from Streptococcus faecalis ATCC 12755 (C9AC47 entry or part of it): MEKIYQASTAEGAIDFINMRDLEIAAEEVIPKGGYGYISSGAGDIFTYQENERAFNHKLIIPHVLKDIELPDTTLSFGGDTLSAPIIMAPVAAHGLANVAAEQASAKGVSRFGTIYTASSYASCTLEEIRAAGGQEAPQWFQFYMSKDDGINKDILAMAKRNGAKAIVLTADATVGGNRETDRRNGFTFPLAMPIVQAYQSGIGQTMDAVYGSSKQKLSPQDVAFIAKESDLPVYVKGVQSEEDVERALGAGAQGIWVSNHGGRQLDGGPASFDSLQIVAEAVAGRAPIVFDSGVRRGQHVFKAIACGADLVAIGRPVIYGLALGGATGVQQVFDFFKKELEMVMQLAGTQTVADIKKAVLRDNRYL

In the case of `C[C@H](O)C(=O)O` [L(+)-lactate], the Km is reported as 200 µM.
